In one test the test system is CHO-α-tubulin-YFP cells. The experiment in a line: α-tubulin-YFP localization in CHO-α-tubulin-YFP cells (fluorescence imaging). The test is classed as cell-based, Chinese hamster. From the text:
Wild-type Chinese Hamster Ovary cells (WT CHO) cells were maintained in Ham's F-12 medium supplemented with 10% fetal bovine serum (FBS; HyClone, Logan, Utah). Cells of low density (˜20%) growing on 2-well chambered cover-slips (Labtek (Campbell, Calif.) or Fisher Scientific) were transfected with a mammalian expression vector encoding α-tubulin-YFP (Clontech, Palo Alto, Calif.) with the use of FuGENE 6 (Roche Molecular Biochemicals, Indianapolis, Ind.), according to the manufacturer's instructions. Twenty-four hours after transfection, the cells were cultured in 400 μg/ml G418 (Invitrogen, Carlsbad, Calif.)-containing selection medium for 2 weeks. Living cells were examined using a fluorescent microscope for α-tubulin-YFP expression. Cells in single colonies containing microtubules labeled with α-tubulin-YFP were lifted and expanded in G418-containing medium. Expression of α-tubulin-YFP was confirmed by the presence of the tubulin-YFP labeled microtubule pattern identical to immunostained microtubule pattern of non-transfected cells, as well as by subjecting the cells to Western blot analysis using an anti-GFP antibody (Roche Molecular Biochemicals, Basel, Switzerland) and confirming the correct mass of the α-tubulin-YFP chimera protein. Expressed tubulin-YFP was detected as a single band in Western blots. The tubulin-YFP expressing cell lines (referred as CHO-α-tubulin-YFP cells) were used in the studies.
CHO-α-tubulin-YFP cells were cultured in 2-well chambered cover-slips (Labtek (Campbell, Calif.) or Fisher Scientific) 24 hours before treatment. For comparison of the centrosomal effects of treatment with Compound 1, Compound 1+Taxol, and Taxol, CHO-α-tubulin-YFP cells were treated with Compound 1, Compound 1+Taxol, Taxol, or equivalent concentrations of DMSO-containing media for various time periods before imaging. For comparison of the effects of Compound 1 and known proteasome inhibitors on centrosomes, the nucleus, and perinuclear regions, CHO-α-tubulin-YFP cells were treated with Compound 1, ALLN (Calbiochem, San Diego, Calif.), lactacystin (Calbiochem, San Diego, Calif.) or MG132 (Calbiochem, San Diego, Calif.), and imaged at various time points from 3 hours to 24 hours after treatment.
Tubulin-YFP fluorescence in living cells or fixed cells was captured using a standard filter for FITC and objectives of 20× or 60× magnification on a Nikon TE300 microscope with a Leica DC50 color digital camera (Leica, Bannockburn, Ill.) or a CoolSnap HQ Monochrome CCD camera (Photonetrics, Tucson, Ariz.). The Leica DC50 and CoolSnapHQ cameras were controlled with Leica DC50 software and MetaVue/MetaMorph software, respectively (Universal Imaging Corp, Downingtown, Pa.).
CHO-α-tubulin-YFP cells were cultured in 2-well chambered cover-slips (Labtek (Campbell, Calif.) or Fisher Scientific) 24 hours before treatment. For comparison of effects on the centrosome, nucleus, and perinuclear regions, cells were treated with Compound 1 and known proteasome inhibitors including ALLN, MG132, Lactacystin, MG115, clasto-Lactacystin β-Lactone (cLβL), and Epoxomicin (10 μM final concentration for all except ALLN, which was used at 100 μM final concentration) (proteasome inhibitors were from Calbiochem, San Diego, Calif.) and imaged at various time points up to 24 hours during treatment.
Tubulin-YFP fluorescence in living cells or fixed cells was captured using a standard filter for FITC and objectives of 20× or 60× magnification on the Nikon TE300 microscope/digital imaging system.

The subject of a further test is 26S proteasome. Description: Proteasome-sensor cells (HEK-293, GFP chimera), fluorescence imaging. In kind it is cell-based. The note with it: HEK-293, 100 nM, 24 hours. From the text:
Specifically, the proteasome-sensor cells are HEK-293 cells stably transfected with a vector (proteasome-sensor vector) that encodes naturally-occurring reef coral Zoanthus sp. green fluorescent protein (GFP) fused to a specific degradation motif that targets the fusion protein for removal by the 26S proteasome. The background fluorescence observed in normal cells with active proteasomes is low. When proteasomes are inhibited, the fluorescent protein quickly accumulates. […] Millennium Pharmaceuticals, Inc., Cambridge, Mass.). […] Velcade (Millennium Pharmaceuticals Inc.) was used as a positive control in this assay (at 5 nM, 50 nM, 500 nM or 5 μM). Velcade stock solution was prepared according to the manufacturer's instructions. GFP fluorescence of the cells was imaged at various time points using a standard filter for FITC with the Nikon TE300 microscope/digital imaging system described herein.

The next test concerns CHO cells. The experiment in a line: Cell morphology, simultaneous time-lapse imaging of CHO cells. The test is classed as cell-based, Chinese hamster. The method, then: CV-1 cells and CHO cells were previously cultured in 2-well chambered cover-slips for 48 hours and incubated in 15 mM HEPES buffer-containing Ham's F-12/DMEM medium with different compounds. The cells were imaged using phase contrast settings with the Nikon TE300 microscope/digital imaging system. The cells were imaged ‘simultaneously’ under control of MetaVue software by capturing frames for cells from different conditions at the same time period using a motorized automated XYZ stage.
To track the effect of Compound 1 on live cells, non-transfected CV-1 cells with were treated with 500 nM Compound 1 and phase contrast time-lapse images were taken every 10 seconds. […] A very low concentration of Taxol (10 nM) was used.

A further test has as its system Hsp70. The experiment in a line: Hsp70 Western blotting in MDA-435 cells. The test is classed as cell-based. Conditions: 0.5 μM, normalized to background and GAPDH. The procedure: Calculations of the percentage changes were made by using the automated band analysis tools of the Kodak 1D (v.3.6.3) program. Band intensities were normalized to background and GAPDH.
MDA-435 breast cancer cells were grown in 100 mm plastic-tissue culture dishes and treated for 6 and 24 hours with 0.5 μM Taxol, Compound 1, Taxol+Compound 1, MG132, ALLN, or DMSO. After treatment, cells were washed in PBS and cell lysates were prepared by adding 100 μL of lysis buffer, which contained 20 mM Tris-HCl (pH 7.5), 150 mM NaCl, 1 mM Na2EDTA, 1 mM EGTA, 1% Triton, 2.5 mM sodium pyrophosphate, 1 mM β-glycerophosphate, 1 mM Na3VO4 and 1 μg/ml leupeptin (Cell Signaling Technology, Beverly, Mass.) supplemented with 1 mM PMSF (Sigma, St. Louis, Mo.) immediately before use, on ice for 1 hour. After scraping, the lysates were cleared by centrifugation at 13,000 RPM for 10 minutes at 4° C. Protein content was determined using a Bradford assay and bovine serum albumin as a standard (Bio-Rad Laboratories, Hercules, Calif.). Samples were solubilized by boiling in SDS sample buffer and subjected to SDS-PAGE. The proteins were subsequently transferred to a PVDF membrane (Bio-Rad, Hercules, Calif.). After blocking with 5% nonfat milk in TBS for 1 hour, the blots were incubated with a mouse monoclonal anti-Hsp70 antibody, which is specific for the inducible form of Hsp70 (Clone C92F3A-5, 1:1000 dilution, Stressgen Biotechnologies Corp., Victoria, B.C., Canada) or a rabbit polyclonal anti-GAPDH antibody (1:2000 dilution, Abcam, Cambridge, Mass.) for 2 hours at room temperature. The horseradish-peroxidase-conjugated secondary antibodies, anti-mouse horse radish peroxidase, (1:2000, Bio-Rad, Hercules, Calif.) and goat anti-rabbit polyclonal horse radish peroxidase (1:2000, Abcam, Cambridge, Mass.)) were diluted in blocking buffer and incubated with the blot for 1 hour at room temperature. The secondary antibodies were detected by enhanced chemiluminescence (ECL, Amersham Biosciences, Piscataway, N.J.) and imaged using a Kodak 440 Image Station.

Regarding `CC(=O)O[C@H]1C(=O)[C@@]2(C)[C@H]([C@H](OC(=O)c3ccccc3)[C@]3(O)C[C@H](OC(=O)[C@H](O)[C@@H](NC(=O)c4ccccc4)c4ccccc4)C(C)=C1C3(C)C)[C@]1(OC(C)=O)CO[C@@H]1C[C@@H]2O` [Taxol], in the test with CHO-α-tubulin-YFP cells (CHO cells, 0.1 μM, 24 hours), the “accumulation of tubulin-YFP at the centrosomes” value is on record as “lack of accumulation of tubulin-YFP at the centrosomes”. Also, in the test with CHO-α-tubulin-YFP cells (CHO-tubulin-YFP cells, concentration and time not given), the “accumulation of tubulin in the centrosomes (overall statement)” value was “no such effect”. Also, the “accumulation of proteasome-sensor protein in cells” value with 26S proteasome was “lack of proteasome-sensor protein in cells”. In addition, the “effect on cell morphology” value in the test with CHO cells (CHO cells, 10 nM, up to 210 minutes) was “did not cause significant cell morphological changes”. Further, the cell death entry in the test on CHO cells (cells, after a certain period of treatment) is reported as “cause cell death after a certain period of treatment”. Besides, the “percentage change in Hsp70 expression relative to DMSO control” value was 86% in the test with Hsp70 (6 hours of treatment) and 556% in the test on Hsp70 (24 hours of treatment).

The values above are taken from patent publication US20060167106A1, “Compounds acting at the centrosome” (priority 2004, published 2006).
